The target in test [1] is T1, thermolysin (Bacillus thermoproteolyticus, UniProt P00800). It counts as biochemical. The note with it: free energy of binding corresponding to Ki.
Test [2] concerns the target T1, thermolysin. In kind it is binding.

T1 sequence (P00800 233-548): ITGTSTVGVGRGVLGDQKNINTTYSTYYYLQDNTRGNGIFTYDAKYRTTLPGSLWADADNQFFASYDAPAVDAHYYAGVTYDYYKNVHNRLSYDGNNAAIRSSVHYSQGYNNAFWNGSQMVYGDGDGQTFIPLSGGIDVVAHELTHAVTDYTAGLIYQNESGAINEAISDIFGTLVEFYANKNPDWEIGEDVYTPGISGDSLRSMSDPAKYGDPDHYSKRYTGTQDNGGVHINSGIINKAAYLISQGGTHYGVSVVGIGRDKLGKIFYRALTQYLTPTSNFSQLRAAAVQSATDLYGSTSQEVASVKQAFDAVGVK

`CC(C)C[C@H](NP(=O)([O-])CNC(=O)OCc1ccccc1)C(=O)NCC(=O)[O-].[Li+].[Li+]` [Compound 8a, N-(N-(N-(benzyloxycarbonyl)-aminomethylphosphonyl)-L-leucinyl)-glycinate di-lithium] gave a ΔGKi on thermolysin [1] of -8.63 kcal/mol. On thermolysin [1], `CC(C)C[C@H](NP(=O)([O-])CNC(=O)OCc1ccccc1)C(=O)N[C@@H](C)C(=O)[O-].[Li+].[Li+]` [Compound 8b, N-(N-(N-(benzyloxycarbonyl)-aminomethylphosphonyl)-L-leucinyl)-alaninate di-Lithium] registered a ΔGKi of -10.5 kcal/mol. Besides, at thermolysin [2], the ΔΔH was -3.18 kcal/mol. Molecule `CNC(=O)[C@H](CC(C)C)NP(=O)([O-])CNC(=O)OCc1ccccc1.[Li+]` [Compound 8c, N-(N-(benzyloxycarbonyl)-aminomethylphosphonyl)-N′-methyl-L-leucinamide lithium] came in with a ΔGKi on thermolysin [1] of -8.25 kcal/mol. On the same count and under the same terms, as for `CCNC(=O)[C@H](CC(C)C)NP(=O)([O-])CNC(=O)OCc1ccccc1.[Li+]` [Compound 8d, N-(N-(benzyloxycarbonyl)-aminomethylphosphonyl)-N′-ethyl-L-leucinamide lithium], the figure is -8.91 kcal/mol.

The record behind these values is paper PMC3495596 (Journal of medicinal chemistry, 2012).
